Read-outs that look alike come from different tables or passages of the source.
Experiments:
[1] = SAD study: plasma pharmacokinetics after a single SC dose; assay type: in vivo; details: both sexes, human
Description: Studies are designed to evaluate the safety, tolerability, pharmacodynamics (PD) and pharmacokinetics (PK) of the GGG tri-receptor agonist (SEQ ID NO:1) in healthy individuals. The SAD study is a randomized, investigator- and participant-blind, placebo-controlled, single-dose, single-site, dose-escalation study conducted in healthy individuals (e.g., overtly healthy females or males aged 21-65 years, inclusive, with a BMI 19-40 kg/m^2 at screening).
Six dose levels of the GGG tri-receptor agonist-0.1, 0.3, 1.0, 3.0, 4.5 and 6.0 mg—are explored in the SAD study, as well as placebo (i.e., 0.0 mg). A dose escalation of the GGG tri-receptor agonist is assessed in cohorts of healthy individuals (e.g., 6 individuals receiving the GGG tri-receptor agonist and 2 individuals receiving placebo per cohort). Staggered dosing is performed for each cohort, in which a new higher dose of the GGG tri-receptor agonist is administered. All injections are administered into the SC tissue of an abdominal wall, in a right or left lower quadrant.
Blood samples are collected pre-dose and at 4 hours (hr), 10 hr, 14 hr, 24 hr (Day 1), 48 hr (Day 2), 72 hr (Day 3), 96 hr (Day 4), 120 hr ([…]), 168 hr (Day 7), 336 hr (Day 14), 672 hr (Day 28) and 1008 hr (Day 42) post-dose to determine plasma concentration of the GGG tri-receptor agonist. Plasma concentrations are used to compute PK parameters using standard non-compartmental methods in a validated software program (Phoenix WinNonlin Version 8.1).
Bioanalytical methods: plasma samples are analyzed at Q2 Solutions (Ithaca, NY). The samples are analyzed for the GGG tri-receptor agonist using a validated liquid chromatography high resolution mass spectrometry method. The lower limit of quantification is 1.00 ng/mL and the upper limit of quantification is 500.00 ng/ml. Samples above a limit of quantification are diluted and reanalyzed to yield results within the calibrated range. The intra-assay accuracy (% relative error) during validation ranges from −6.3% to 15.7%. The intra-assay precision (% relative standard deviation) during validation is ≤14.7%. The GGG tri-receptor agonist is stable for up to 96 days when stored at about-20° C. and about −70° C.
Actual sampling times are used in the calculation of all PK parameters and concentration versus time profiles.
Concentration values below the quantifiable lower limit of the assay are excluded from the calculation of PK parameters, except for those prior to the first measurable concentration, which are set to a value of 0.
A concentration average is plotted for a given sample if two thirds of the individual data at the time point have quantifiable measurements. Concentrations at sampling times exceeding ±10% of the scheduled time ware excluded from the average concentration profiles.

[2] = Phase 2 study for obesity and NAFLD; assay type: in vivo, human; details: 16 week data; dose range 2-12 mg; steps of 1, 2, 3 or 4 mg QW SC
Description: Studies are designed to further evaluate the effectiveness and safety of the GGG tri-receptor agonist (SEQ ID NO:1) in a larger population of obese individuals or overweight individuals. The study is a randomized, investigator- and participant-blind, placebo-controlled study conducted in obese individuals or overweight individuals without diabetes (i.e., females or males aged 18-75 years, inclusive, with obesity prior to randomization and with a BMI of ≥30 kg/m^2 at screening or overweight prior to randomization and with a BMI of ≥27 kg/m^2 […] <30 kg/m^2 at screening with weight-related comorbidities but without T2DM).
Dose escalation of the GGG tri-receptor agonist is assessed over 36 weeks in cohorts administered the GGG tri-receptor agonist, dulaglutide or placebo. A first cohort of 60 individuals is administered 2.0 mg of the GGG tri-receptor agonist for Weeks 1-4, 4.0 mg for the Weeks 5-8, 8.0 mg for Weeks 9-12, and then 12.0 mg for […]. […] An additional 125 individuals are assessed for NAFLD, which is characterized by ≥10% liver fat by magnetic resonance imaging proton density fat fraction (MRI-PDFF).
Body weight is assessed at pre-dose and at Week 24 and at Week 48 for % change in body weight. Mean change in waist circumference (cm) is measured at Week 24 or Week 48. […]

CC[C@H](C)[C@H](NC(=O)[C@H](Cc1ccccc1)NC(=O)[C@H](C)NC(=O)C(C)(C)NC(=O)[C@H](CCC(N)=O)NC(=O)[C@H](C)NC(=O)[C@H](CCCCNC(=O)COCCOCCNC(=O)CC[C@H](NC(=O)CCCCCCCCCCCCCCCCCCC(=O)O)C(=O)O)NC(=O)[C@H](CCCCN)NC(=O)[C@H](CC(=O)O)NC(=O)[C@H](CC(C)C)NC(=O)[C@](C)(CC(C)C)NC(=O)[C@@H](NC(=O)[C@H](CO)NC(=O)[C@H](Cc1ccc(O)cc1)NC(=O)[C@H](CC(=O)O)NC(=O)[C@H](CO)NC(=O)[C@@H](NC(=O)[C@H](Cc1ccccc1)NC(=O)[C@@H](NC(=O)CNC(=O)[C@H](CCC(N)=O)NC(=O)C(C)(C)NC(=O)[C@@H](N)Cc1ccc(O)cc1)[C@@H](C)O)[C@@H](C)O)[C@@H](C)CC)C(=O)N[C@@H](CCC(=O)O)C(=O)N[C@@H](Cc1ccc(O)cc1)C(=O)N[C@@H](CC(C)C)C(=O)N[C@@H](CC(C)C)C(=O)N[C@@H](CCC(=O)O)C(=O)NCC(=O)NCC(=O)N1CCC[C@H]1C(=O)N[C@@H](CO)C(=O)N[C@@H](CO)C(=O)NCC(=O)N[C@@H](C)C(=O)N1CCC[C@H]1C(=O)N1CCC[C@H]1C(=O)N1CCC[C@H]1C(=O)N[C@@H](CO)C(N)=O [GGG tri-receptor agonist, Y-Aib-QGTFTSDYSI-αMeL-LDKK((2-[2-(2-amino-ethoxy)-ethoxy]-acetyl)-(γGlu)-CO-(CH2)18-CO2H)AQ-Aib-AFIEYLLEGGPSSGAPPPS-NH2]
AUC(0-inf) ([1]; 0.1 mg single SC dose): 3750 ng·h/mL | CL/F ([1]; 0.1 mg single SC dose): 0.445 mL/min | Cmax ([1]; 0.1 mg single SC dose): 11 ng/mL | Tmax ([1]; 0.1 mg single SC dose): 72 h | AUC(0-inf) ([1]; 0.3 mg single SC dose): 10300 ng·h/mL | CL/F ([1]; 0.3 mg single SC dose): 0.485 mL/min | Cmax ([1]; 0.3 mg single SC dose): 44.8 ng/mL | Tmax ([1]; 0.3 mg single SC dose): 72.2 h | AUC(0-inf) ([1]; 1.0 mg single SC dose): 28300 ng·h/mL | CL/F ([1]; 1.0 mg single SC dose): 0.59 mL/min | Cmax ([1]; 1.0 mg single SC dose): 110 ng/mL | Tmax ([1]; 1.0 mg single SC dose): 48 h | AUC(0-inf) ([1]; 3.0 mg single SC dose): 69100 ng·h/mL | CL/F ([1]; 3.0 mg single SC dose): 0.723 mL/min | Cmax ([1]; 3.0 mg single SC dose): 251 ng/mL | Tmax ([1]; 3.0 mg single SC dose): 14 h | AUC(0-inf) ([1]; 4.5 mg single SC dose): 130000 ng·h/mL | CL/F ([1]; 4.5 mg single SC dose): 0.577 mL/min | Cmax ([1]; 4.5 mg single SC dose): 589 ng/mL | Tmax ([1]; 4.5 mg single SC dose): 12 h | AUC(0-inf) ([1]; 6.0 mg single SC dose): 150000 ng·h/mL | CL/F ([1]; 6.0 mg single SC dose): 0.668 mL/min | Cmax ([1]; 6.0 mg single SC dose): 635 ng/mL | Tmax ([1]; 6.0 mg single SC dose): 24 h | half-life ([1]; sc, 0.1 mg, 0.1 mg single SC dose, read-out: t½ (converted)): 165 h | half-life ([1]; sc, 0.3 mg, 0.3 mg single SC dose, read-out: t½ (converted)): 139 h | half-life ([1]; sc, 1 mg, 1.0 mg single SC dose, read-out: t½ (converted)): 134 h | half-life ([1]; sc, 3 mg, 3.0 mg single SC dose, read-out: t½ (converted)): 134 h | half-life ([1]; sc, 4.5 mg, 4.5 mg single SC dose, read-out: t½ (converted)): 163 h | half-life ([1]; sc, 6 mg, 6.0 mg single SC dose, read-out: t½ (converted)): 149 h | half-life ([1]; subcutaneous, single dose, read-out: mean terminal t½): 120 to 168 h | tolerability profile of dosing regimens [2]: acceptable tolerability profiles

— US12496329B2, “Methods of using and compositions including an incretin analog” (Eli Lilly and Company, priority 2021, dated 2025)
